Patent US11247965B2 (VenatoRx Pharmaceuticals, Inc., priority 2017, dated 2022)
pEC50: −log10 of the molar value.

Columns and labels:
[1] = In vitro cytotoxicity, MTT cell viability assay in HepG2 cells; assay type: cell-based; conditions: human, Cytotoxicity CC50
Procedure, shortened: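 HepG2 cells incubated 7 days at 37 °C, 5% CO2 with compounds from 30 μM to 1.0 nM (8 half-log dilutions). Viability read as MTT formazan absorbance at 492 nm, normalised to vehicle controls; CC50 from 4-parameter non-linear regression.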

[2] = tested on: HBV replication in HepAD38 cells; assay: Anti-HBV activity in HepAD38 cells, extracellular HBV DNA by QPCR; assay type: cell-based, HBV (genotype D, serotype ayw); conditions: Hepatitis B virus, HePAD38, 168 h, read-out: Anti-HBV EC50, HepAD38 cells, extracellular HBV DNA by QPCR, 7 days of incubation
Procedure, shortened: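 Seven-day compound exposure (30 μM down to 10 nM, half-log steps) after tetracycline withdrawal induced HBV replication in HepAD38 cells. Extracellular viral DNA measured by QPCR (copies/mL via standard curve), normalised to DMSO wells; EC50 from 4-parameter non-linear regression.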

Row | SMILES | CC50 at 7 days [1] [µM] | pEC50 [2]
1 | Cc1cc(NC(=O)c2ccc(F)c(C(F)(F)C(=O)N3CC=C(B(O)O)CC3)c2)ccc1F [Example 154, (1-(2,2-difluoro-2-(2-fluoro-5-((4-fluoro-3-methylphenyl)carbamoyl)phenyl)acetyl)-1,2,3,6-tetrahydropyridin-4-yl)boronic acid] | 5 to 30 | > 5.30
2 | Cc1cc(NC(=O)c2ccc(F)c(C(F)(F)C(=O)NCB(O)O)c2)ccc1F [Example 156, ((2,2-difluoro-2-(2-fluoro-5-((4-fluoro-3-methylphenyl)carbamoyl)phenyl)acetamido)methyl)boronic acid] | 5 to 30 | 4.52 to 5.30
3 | Cc1cc(NC(=O)c2cc(C(F)(F)C(=O)NC(C)(C)C)cs2)ccc1F [Example 157, 4-(2-(tert-butylamino)-1,1-difluoro-2-oxoethyl)-N-(4-fluoro-3-methylphenyl)thiophene-2-carboxamide] | 5 to 30 | 4.52 to 5.30
4 | Cc1cc(NC(=O)c2cc(Br)c(C(F)(F)C(=O)NC(C)(C)C)s2)ccc1F [Example 158, 4-bromo-5-(2-(tert-butylamino)-1,1-difluoro-2-oxoethyl)-N-(4-fluoro-3-methylphenyl)thiophene-2-carboxamide] | 5 to 30 | 4.52 to 5.30
5 | Cc1cc(NC(=O)c2ccc(F)c(C(F)(F)C(=O)N3CCC(O)CC3)c2)cc(F)c1F [Example 159, 3-(1,1-difluoro-2-(4-hydroxypiperidin-1-yl)-2-oxoethyl)-N-(3,4-difluoro-5-methylphenyl)-4-fluorobenzamide] | 5 to 30 | > 5.30
6 | Cc1cc(NC(=O)c2ccc(F)c(C(F)(F)C(=O)N3CCC(O)CC3)c2)cc(F)n1 [Example 160, 3-(1,1-difluoro-2-(4-hydroxypiperidin-1-yl)-2-oxoethyl)-4-fluoro-N-(2-fluoro-6-methylpyridin-4-yl)benzamide] | 5 to 30 | 4.52 to 5.30
7 | Cc1cc(NC(=O)c2ccc(F)c(C(F)(F)C(=O)N3CC(F)(F)CC3C(=O)O)c2)ccc1F (centres unmarked) [Example 161, 1-(2,2-difluoro-2-(2-fluoro-5-((4-fluoro-3-methylphenyl)carbamoyl)phenyl)acetyl)-4,4-difluoropyrrolidine-2-carboxylic acid] | > 30 | 4.52 to 5.30
8 | Cc1cc(NC(=O)c2ccc(F)c(C(F)(F)C(=O)N3CCC(O)C(F)C3)c2)ccc1F (centres unmarked) [Example 162, 3-(1,1-difluoro-2-(3-fluoro-4-hydroxypiperidin-1-yl)-2-oxoethyl)-4-fluoro-N-(4-fluoro-3-methylphenyl)benzamide] | 5 to 30 | > 5.30
9 | Cc1cc(NC(=O)c2ccc(F)c(C(F)(F)C(=O)N3[C@@H]4CC[C@H]3C[C@H](O)C4)c2)ccc1F [Example 163, 3-(1,1-difluoro-2-((1R,3s,5S)-3-hydroxy-8-azabicyclo[3.2.1]octan-8-yl)-2-oxoethyl)-4-fluoro-N-(4-fluoro-3-methylphenyl)benzamide] | 5 to 30 | > 5.30
10 | Cc1cc(NC(=O)c2ccc(F)c(C(F)(F)C(=O)N3CCC(C(N)=O)CC3)c2)ccc1F [Example 164, 1-(2,2-difluoro-2-(2-fluoro-5-((4-fluoro-3-methylphenyl)carbamoyl)phenyl)acetyl)piperidine-4-carboxamide] | > 30 | > 5.30
11 | Cc1cc(NC(=O)c2cc(C(F)(F)C(=O)NC(C)(C)C)n(C)n2)ccc1F [Example 165, 5-(2-(tert-butylamino)-1,1-difluoro-2-oxoethyl)-N-(4-fluoro-3-methylphenyl)-1-methyl-1H-pyrazole-3-carboxamide] | > 30 | 4.52 to 5.30
12 | Cc1cc(NC(=O)c2nn(C)cc2C(F)(F)C(=O)NC(C)(C)C)ccc1F [Example 166, 4-(2-(tert-butylamino)-1,1-difluoro-2-oxoethyl)-N-(4-fluoro-3-methylphenyl)-1-methyl-1H-pyrazole-3-carboxamide] | > 30 | 4.52 to 5.30
13 | O=C(Nc1ccnc(Cl)c1)c1ccc(F)c(C(F)(F)C(=O)N2CCC(O)CC2)c1 [Example 167, N-(2-chloropyridin-4-yl)-3-(1,1-difluoro-2-(4-hydroxypiperidin-1-yl)-2-oxoethyl)-4-fluorobenzamide] | 5 to 30 | 4.52 to 5.30
14 | Cc1cc(NC(=O)c2cccc(C(F)(F)C(=O)N3CCC(O)CC3)c2Cl)ccc1F [Example 168, 2-chloro-3-(1,1-difluoro-2-(4-hydroxypiperidin-1-yl)-2-oxoethyl)-N-(4-fluoro-3-methylphenyl)benzamide] | 5 to 30 | > 5.30
15 | O=C(Nc1ccc(F)c(Cl)c1)c1ccc(F)c(C(F)(F)C(=O)N2CCC(O)C(F)(F)C2)c1 (centres unmarked) [Example 169, N-(3-chloro-4-fluorophenyl)-3-(2-(3,3-difluoro-4-hydroxypiperidin-1-yl)-1,1-difluoro-2-oxoethyl)-4-fluorobenzamide] | 5 to 30 | > 5.30
16 | O=C(Nc1ccc(F)c(Cl)c1)c1ccc(F)c(C(F)(F)C(=O)N2[C@@H]3CC[C@H]2C[C@@H](O)C3)c1 [Example 170, N-(3-chloro-4-fluorophenyl)-3-(1,1-difluoro-2-((1R,3r,5S)-3-hydroxy-8-azabicyclo[3.2.1]octan-8-yl)-2-oxoethyl)-4-fluorobenzamide] | 5 to 30 | > 5.30
17 | O=C(Nc1ccc(F)c(Cl)c1)c1ccc(F)c(C(F)(F)C(=O)N2[C@@H]3CC[C@H]2C[C@H](O)C3)c1 [Example 171, N-(3-chloro-4-fluorophenyl)-3-(1,1-difluoro-2-((1R,3s,5S)-3-hydroxy-8-azabicyclo[3.2.1]octan-8-yl)-2-oxoethyl)-4-fluorobenzamide] | 5 to 30 | > 5.30
18 | O=C(Nc1ccc(F)c(Cl)c1)c1ccc(F)c(C(F)(F)C(=O)N2CCC(O)(CO)CC2)c1 [Example 172, N-(3-chloro-4-fluorophenyl)-3-(1,1-difluoro-2-(4-hydroxy-4-(hydroxymethyl)piperidin-1-yl)-2-oxoethyl)-4-fluorobenzamide] | 5 to 30 | > 5.30
19 | O=C(Nc1cc(F)c(F)c(F)c1)c1ccc(F)c(C(F)(F)C(=O)N2[C@@H]3CC[C@H]2C[C@@H](O)C3)c1 [Example 173] | 5 to 30 | > 5.30
20 | O=C(Nc1cc(F)c(F)c(F)c1)c1ccc(F)c(C(F)(F)C(=O)N2CCC(O)(CO)CC2)c1 [Example 174, 3-(1,1-difluoro-2-(4-hydroxy-4-(hydroxymethyl)piperidin-1-yl)-2-oxoethyl)-4-fluoro-N-(3,4,5-trifluorophenyl)benzamide] | 5 to 30 | > 5.30
21 | O=C(Nc1ccc(F)c(Br)c1)c1ccc(F)c(C(F)(F)C(=O)N2CCC(O)C(F)(F)C2)c1 (centres unmarked) [Example 175, N-(3-bromo-4-fluorophenyl)-3-(2-(3,3-difluoro-4-hydroxypiperidin-1-yl)-1,1-difluoro-2-oxoethyl)-4-fluorobenzamide] | 5 to 30 | > 5.30
22 | O=C(Nc1ccc(F)c(Br)c1)c1ccc(F)c(C(F)(F)C(=O)N2[C@@H]3CC[C@H]2C[C@@H](O)C3)c1 [Example 176, N-(3-bromo-4-fluorophenyl)-3-(1,1-difluoro-2-((1R,3r,5S)-3-hydroxy-8-azabicyclo[3.2.1]octan-8-yl)-2-oxoethyl)-4-fluorobenzamide] | 5 to 30 | > 5.30
23 | N#Cc1cc(NC(=O)c2ccc(F)c(C(F)(F)C(=O)N3CCC(O)C(F)(F)C3)c2)ccc1F (centres unmarked) [Example 177, N-(3-cyano-4-fluorophenyl)-3-(2-(3,3-difluoro-4-hydroxypiperidin-1-yl)-1,1-difluoro-2-oxoethyl)-4-fluorobenzamide] | 5 to 30 | > 5.30
24 | Cn1cc(NC(=O)c2ccc(F)c(C(F)(F)C(=O)N3CCC(O)C(F)(F)C3)c2)cn1 (centres unmarked) [Example 179, 3-(2-(3,3-difluoro-4-hydroxypiperidin-1-yl)-1,1-difluoro-2-oxoethyl)-4-fluoro-N-(1-methyl-1H-pyrazol-4-yl)benzamide] | > 30 | 4.52 to 5.30
25 | Cn1cc(NC(=O)c2ccc(F)c(C(F)(F)C(=O)N3[C@@H]4CC[C@H]3C[C@@H](O)C4)c2)cn1 [Example 180, 3-(1,1-difluoro-2-((1R,3r,5S)-3-hydroxy-8-azabicyclo[3.2.1]octan-8-yl)-2-oxoethyl)-4-fluoro-N-(1-methyl-1H-pyrazol-4-yl)benzamide] | > 30 | 4.52 to 5.30
26 | Cn1cc(NC(=O)c2ccc(F)c(C(F)(F)C(=O)N3[C@@H]4CC[C@H]3C[C@H](O)C4)c2)cn1 [Example 181, 3-(1,1-difluoro-2-((1R,3s,5S)-3-hydroxy-8-azabicyclo[3.2.1]octan-8-yl)-2-oxoethyl)-4-fluoro-N-(1-methyl-1H-pyrazol-4-yl)benzamide] | > 30 | 4.52 to 5.30
27 | Cn1cc(NC(=O)c2ccc(F)c(C(F)(F)C(=O)N3CCC(O)(CO)CC3)c2)cn1 [Example 182, 3-(1,1-difluoro-2-(4-hydroxy-4-(hydroxymethyl)piperidin-1-yl)-2-oxoethyl)-4-fluoro-N-(1-methyl-1H-pyrazol-4-yl)benzamide] | > 30 | 4.52 to 5.30
28 | CC(C)n1cc(NC(=O)c2ccc(F)c(C(F)(F)C(=O)N3CCC(O)C(F)(F)C3)c2)cn1 (centres unmarked) [Example 183, 3-(2-(3,3-difluoro-4-hydroxypiperidin-1-yl)-1,1-difluoro-2-oxoethyl)-4-fluoro-N-(1-isopropyl-1H-pyrazol-4-yl)benzamide] | > 30 | 4.52 to 5.30
